# Data published in US9884043B2, “RORgammaT inhibitors” (Merck Sharp & Dohme Corp., priority 2011, dated 2018).
# Molecular target: T1, 6His(GST)RORgamma-LBD (Homo sapiens, UniProt P51449)
# T1 construct: the applied RORgamma-LBD contains a 6-His and GST tag; GST (N); made in house; host or cells: baculovirus-infected Sf-21 insect cells
# T1 sequence (P51449 269-508 limits assumed): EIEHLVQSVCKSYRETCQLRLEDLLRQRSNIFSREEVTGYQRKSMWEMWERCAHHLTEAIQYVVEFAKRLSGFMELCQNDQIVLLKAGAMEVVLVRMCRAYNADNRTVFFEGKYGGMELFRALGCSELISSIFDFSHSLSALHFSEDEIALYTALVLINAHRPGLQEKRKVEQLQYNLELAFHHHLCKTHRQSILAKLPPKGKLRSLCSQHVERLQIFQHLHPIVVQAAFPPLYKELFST
# Test: TR-FRET assay (Protocol A), RORgamma-LBD / SRC1_2 co-activator peptide interaction
# Assay type: biochemical
# Settings: SRC1_2 peptide 0.1 μM, RORgamma-LBD 10 nM, overnight incubation at 4° C.
# Source text: Activation of RORgammaT activity can be measured using e.g. biochemical TR-FRET assay. In such an assay, interaction of cofactor-derived peptides with human RORgammaT-Ligand Binding Domain (LBD) can be measured.
# To identify novel antagonists of RORgammaT, an assay was developed which employs the interaction of RORgammaT with its co-activator peptide SRC1_2. […] The assay was run following three slightly different protocols, i.e. Protocol A, Protocol B, and Protocol C, which are described below.
# TR-FRET Assay (Protocol A)
# The 6His(GST)RORgamma-LBD was expressed and purified from baculovirus infected Sf-21 insect cells (Bac-to-BAC, Invitrogen) and purified using glutathione sepharose chromatography (GE healthcare). Biotin and His function as anchoring points for streptavidin-allophycocyanin (Strep-APC, Perkin Elmer, C130-100) and anti-His-Europium Cryptate (Perkin Elmer, AD0111), respectively. Since energy transfer between the streptavidin and His-coupled labels APC and europium cryptate can only take place when these labels are in close proximity, measurement of energy transfer in a mixture of biotinylated peptide, His-GR-LBD, streptavidin-APC and anti-His-Europium Cryptate will be indicative for RORy-LBD/peptide binding. […] Changes in peptide binding caused by dose-curves of compounds added to the reaction mixture (DMSO concentration 0.1%), can likewise be monitored.
row,SMILES,EC50
1,"O=S(=O)(c1sc(Cl)cc1Br)n1nc(-c2ccc(-c3nnn[nH]3)cc2)c2ccccc21 [Example 21C, 3-(4-(1H-tetrazol-5-yl)phenyl)-1-(3-bromo-5-chlorothiophen-2-ylsulfonyl)-1H-indazole]",617 nM
2,"Cc1noc(C)c1S(=O)(=O)n1nc(-c2ccc(-c3nnn[nH]3)cc2)c2ccccc21 [Example 21D, 4-(3-(4-(1H-tetrazol-5-yl)phenyl)-1H-indazol-1-ylsulfonyl)-3,5-dimethylisoxazole]",741 nM
3,"O=C(c1c(Cl)cccc1Cl)n1nc(-c2ccc(-c3nnn[nH]3)cc2)c2ccccc21 [Example 22, (3-(4-(1H-tetrazol-5-yl)phenyl)-1H-indazol-1-yl)(2,6-dichlorophenyl)methanone]",5010 nM
4,"O=C(c1cccc(Cl)c1Cl)n1nc(-c2ccc(-c3nnn[nH]3)cc2)c2ccccc21 [Example 23, (3-(4-(1H-tetrazol-5-yl)phenyl)-1H-indazol-1-yl)(2,3-dichlorophenyl)methanone]",1020 nM

# Molecular target: T2, HIS-tagged RORγ-LBD (Homo sapiens, UniProt P51449)
# T2 construct: HIS-tagged RORγ-LBD was recombinantly expressed in SF9 cells using a baculovirus expression system; made in house; host or cells: SF9 cells, baculovirus; crude lysate used
# T2 sequence (P51449 269-508 limits assumed): T1 sequence (P51449 269-508 limits assumed)
# Test: TR-FRET assay (Protocol C), purified RORγ-LBD / biotinylated SRC1 LXXLL peptide
# Assay type: biochemical
# Settings: purified RORγ-LBD 3 nM, SRC1 peptide 100 nM, overnight at 4° C.
# Source text: Activation of RORgammaT activity can be measured using e.g. biochemical TR-FRET assay. In such an assay, interaction of cofactor-derived peptides with human RORgammaT-Ligand Binding Domain (LBD) can be measured. The TR-FRET technique is a sensitive biochemical proximity assay that will give information concerning the interaction of a ligand with the LBD, in the presence of cofactor derived peptides (Zhou et al., Methods 25:54-61, 2001).
# To identify novel antagonists of RORgammaT, an assay was developed which employs the interaction of RORgammaT with its co-activator peptide SRC1_2. This peptide mimics the recruitment of co-activators to RORgammaT through its interaction with the LXXLL (SEQ ID NO:2) (eg NR box) motifs (Xie et al., J. Immunol. 175: 3800-09, 2005; Kurebayashi et al., Biochem. Biophys. Res. Commun. 315: 919-27, 2004; Jin et al., Mol. Endocrinology 24:923-29, 2010). The assay was run following three slightly different protocols, i.e. Protocol A, Protocol B, and Protocol C, which are described below.
# TR-Fret Assay (Protocol C)
# HIS-tagged RORγ-LBD protein was expressed in SF9 cells using a baculovirus expression system. The RORγ-LBD protein was purified by glutathione sepharose chromatography. Separately, SF9 cells not expressing any recombinant protein were lysed and the lysate was added to the purified RORγ-LBD at 0.25 μl lysate (from 10,000 SF9 cells)/nM purified protein. The mixture was then diluted in assay buffer (50 mM Tris pH 7.0, 50 mM KCl, 1 mM EDTA, 0.1 mM DTT) to obtain RORγ-LBD final concentration of 3 nM in 384-well assay plate.
# Compounds to be tested were injected to the assay plate using Acoustic Droplet Ejection technology by Echo 550 liquid handler (Labcyte, Calif.). A stock of biotinylated-LXXLL (SEQ ID NO:2) peptide from coactivator SRC1 (Biotin-[…]) (SEQ ID NO: 1) was prepared in assay buffer and added to each well (100 nM final concentration). A solution of Europium tagged anti-HIS antibody (1.25 nM final concentration) and APC conjugated streptavidin (8 nM final concentration) were also added to each well.
# The final assay mixture was incubated for overnight at 4° C., and the fluorescence signal was measured on an Envision plate reader: (Excitation filter=340 nm; APC emission=665 nm; Europium emission=615 nm; dichroic mirror=D400/D630; delay time=100 μs, integration time=200 μs). IC50 values for test compounds were calculated from the quotient of the fluorescence signal at 665 nm divided by the fluorescence signal at 615 nm.
row,SMILES,IC50
1,"COc1cccc(F)c1C(=O)n1nc(-c2ccc(C(=O)O)cc2F)c2ccccc21 [Example 24AU, sodium 3-fluoro-4-(1-(2-fluoro-6-methoxybenzoyl)-1H-indazol-3-yl)benzoate]",< 50 nM
2,"COc1cccc(F)c1C(=O)n1nc(-c2ccc(C(=O)O)cc2)c2cccc(F)c21 [Example 24AV, 4-(7-fluoro-1-(2-fluoro-6-methoxybenzoyl)-1H-indazol-3-yl)benzoic acid]",50 to 500 nM
3,"COc1cccc(F)c1C(=O)n1nc(-c2ccc(C(=O)O)cc2F)c2cccc(F)c21 [Example 24AW, 3-fluoro-4-(7-fluoro-1-(2-fluoro-6-methoxybenzoyl)-1H-indazol-3-yl)benzoic acid]",50 to 500 nM
4,"O=C(O)c1ccc(-c2nn(C(=O)c3c(Cl)cccc3C(F)(F)F)c3cc(C(=O)N4CC(F)C4)ccc23)cc1 [Example 25T, 4-(1-(2-chloro-6-(trifluoromethyl)benzoyl)-6-(3-fluoroazetidine-1-carbonyl)-1H-indazol-3-yl)benzoic acid]",< 50 nM
5,"O=C(O)c1ccc(-c2nn(C(=O)c3c(Cl)cccc3C(F)(F)F)c3cc(C(=O)N4CCCC4)ccc23)cc1 [Example 25V, 4-(1-(2-chloro-6-(trifluoromethyl)benzoyl)-6-(pyrrolidine-1-carbonyl)-1H-indazol-3-yl)benzoic acid]",< 50 nM
6,"O=C(O)c1ccc(-c2nn(C(=O)c3c(Cl)cccc3C(F)(F)F)c3cc(C(=O)N4CCC4)ccc23)cc1 [Example 25W, 4-(6-(azetidine-1-carbonyl)-1-(2-chloro-6-(trifluoromethyl)benzoyl)-1H-indazol-3-yl)benzoic acid]",< 50 nM

# Further lines, results first:
row,IC50,SMILES
1,> 10000 nM,"O=C(O)c1cc(-c2nn(C(=O)c3c(Cl)cccc3C(F)(F)F)c3cccnc23)ccc1O [Example 24AL, 5-(1-(2-chloro-6-(trifluoromethyl)-benzoyl)-1H-pyrazolo[4,3-b]pyridin-3-yl)-2-hydroxybenzoic acid]"
2,< 50 nM,"O=C(O)c1ccc(-c2nn(C(=O)c3c(Cl)cccc3C(F)(F)F)c3ccccc23)c(Cl)c1 [Example 24AS, 3-chloro-4-(1-(2-chloro-6-(trifluoromethyl)-benzoyl)-1H-indazol-3-yl)benzoic acid]"
3,50 to 500 nM,"COCc1ccc2c(-c3ccc(C(=O)O)cc3)nn(C(=O)c3c(Cl)cccc3C(F)(F)F)c2c1 [Example 24BG, 4-(1-(2-chloro-6-(trifluoromethyl)-benzoyl)-6-(methoxymethyl)-1H-indazol-3-yl)benzoic acid]"
4,< 50 nM,"COCCCNC(=O)c1ccc2c(-c3ccc(C(=O)O)cc3F)nn(C(=O)c3c(Cl)cccc3C(F)(F)F)c2c1 [Example 25N, 4-(1-(2-chloro-6-(trifluoromethyl)benzoyl)-6-(3-methoxypropyl-carbamoyl)-1H-indazol-3-yl)-3-fluorobenzoic acid]"
5,< 50 nM,"COCCN(C)C(=O)c1ccc2c(-c3ccc(C(=O)O)cc3F)nn(C(=O)c3c(Cl)cccc3C(F)(F)F)c2c1 [Example 25S, 4-(1-(2-chloro-6-(trifluoromethyl)benzoyl)-6-((2-methoxyethyl) (methyl)carbamoyl)-1H-indazol-3-yl)-3-fluorobenzoic acid]"
6,< 50 nM,"O=C(O)c1ccc(-c2nn(C(=O)c3c(Cl)cccc3C(F)(F)F)c3cc(C(=O)N4CC(F)(F)C4)ccc23)cc1 [Example 25U, 4-(1-(2-chloro-6-(trifluoromethyl)benzoyl)-6-(3,3-difluoroazetidine-1-carbonyl)-1H-indazol-3-yl)benzoic acid]"
7,< 50 nM,"O=C(O)c1cc(F)c(-c2nn(C(=O)c3c(Cl)cccc3C(F)(F)F)c3cccc(F)c23)cc1O [Example 26F, 4-(1-(2-chloro-6-(trifluoromethyl)benzoyl)-4-fluoro-1H-indazol-3-yl)-5-fluoro-2-hydroxybenzoic acid]"
8,< 50 nM,"O=C(O)c1c(F)cc(-c2nn(C(=O)c3c(Cl)cccc3C(F)(F)F)c3cccc(F)c23)c(F)c1O [Example 26G, 4-(1-(2-chloro-6-(trifluoromethyl)benzoyl)-4-fluoro-1H-indazol-3-yl)-3,6-difluoro-2-hydroxybenzoic acid]"
